How the values were obtained:
Rat (SD) [1] = assay: Amphetamine-stimulated locomotion and rearing in rats; type: in vivo; conditions: for Minimum Effective Dose, amphetamine-stimulated locomotion and rearing: Rat (SD), PO
Procedure: (§1) Effects of exemplary low impact ampakines were also evaluated in mice for the ability to inhibit amphetamine-stimulated locomotor activity. Mice were placed in the locomotor chamber for 20 min to habituate, removed, injected with either vehicle or SCI recovery ampakine (CX717), and 5 min later injected with 2 mg/kg i.p. Amphetamine Mice were returned to the locomotor chamber 10 min later, and their activity measured for a further 15 min. In related studies, adult male CD1 mice or male Sprague-Dawley rats were acclimated in a test chamber for 20 minutes removed and dosed i.p. (mice) or orally (rats) with CX1739, vehicle, or a reference compound. Five (mice) or 10 (rats) were then injected with amphetamine (2 mg/kg, i.p.) or saline vehicle and were returned to the activity test chamber.

Monkey (Rhesus) = assay: Delayed match-to-sample test; type: in vivo, Rhesus macaque; conditions: for Minimum Effective Dose, delayed match-to-sample test: Monkey (Rhesus), PO
Procedure: Further elucidating the potent behavioral and cognitive effects of exemplary ampakines useful within the invention, additional studies using the well-known Monkey Delayed Match to Sample assay were conducted. CX1739 was evaluated using aged Rhesus macaque monkeys (18 to 33 years old), undertaking the delayed match-to-sample (DMTS) task. The stimuli included red, blue, or yellow rectangles. A trial was initiated by presentation of a sample rectangle composed of one of the three colors. The sample rectangle remained in view until the monkey touched within its borders to initiate a pre-programmed delay (retention) interval. Following the delay interval, two choice rectangles were presented, with one of the two choice colors being the color matching the stimulus and the other (incorrect) color as one of the two remaining colors. A correct (matching) choice was reinforced. Non-matching choices were neither reinforced nor punished. The duration for each delay interval was adjusted for each subject until three levels of group performance accuracy approximated zero delay (85-100% of trials answered correctly), short delay interval (75-84% correct), medium delay interval (65-74% correct), and long delay interval (55-64% correct). The inter-trial interval was 5 seconds and each session consisted of 96 trials.

Mouse (CD1) = assay: Amphetamine-stimulated locomotion in mice; type: in vivo; conditions: for Minimum Effective Dose, amphetamine-stimulated locomotion: Mouse (CD1), IP; for Dose producing a significant decrease in amphetamine-stimulated locomotion: mice, amphetamine 2 mg/kg i.p.
Procedure: as §1

Rat (SD) [2] = assay: Radial arm maze - spatial memory; type: in vivo; conditions: for Minimum Effective Dose, radial arm maze - spatial memory: Rat (SD), IP
Procedure: Yet another animal model for evaluating ampakine drug activity employed herein is the well-known and widely accepted Radial Arm Maze model. CX717 was tested for its ability to improve the performance of aged rats in an eight-arm radial maze using a cross-over design study. This behavioral test uses a standard eight-arm radial maze wherein five arms were open and baited with food pellets for the first morning session. Each animal was allowed to consume the food rewards present in the open arms and was then returned to its home cage. Six hours later animals were returned to the maze, wherein all eight-arms were open, but only the three arms previously closed contained food rewards. Scoring was based on the number of correct choices before an incorrect choice (re-entering an arm that was visited during the morning acquisition session) was made and on the total number of incorrect choices made before all three of the still baited arms were visited. CX717 was tested at six doses (0.03, 0.1, 0.3, 1, 3 and 10 mg/kg in hydroxypropyl β-cyclodextran, i.p.), administered 30 min prior to the start of the morning acquisition session and no drug was given prior to the second trial six hours later.
For CX1739 male Sprague-Dawley rats were trained to perform the win shift assay on the radial arm maze for approximately 10 weeks prior to the study. On each day of training and testing, each rat completed one trial, split into a sample phase and a test phase. During the sample phase, the rat was placed on a 12-arm radial arm maze surrounded by visual cues. Food wells at the end of each arm were baited with sucrose pellets but access to three arms, selected randomly, was blocked with a clear plastic divider at the arm entrance. The rat was allowed 5 minutes to search the maze and collect the available food pellets before being removed from the maze. Fifteen minutes later the rat was returned to the maze for the test phase of the trial. During the test phase, the rat was allowed access to all 12 arms of the maze but only the arms that had been blocked previously were baited with sucrose pellets. […]

LTP in rat hippocampus = assay: Induction of LTP in rat hippocampus in vivo; parameters: species or system Rat (Long Evans); conditions: for Minimum Effective Dose, effect on induction of LTP in rat hippocampus: Rat (Long Evans), IP
[3] = Phase 1 studies in healthy volunteers (safety, pharmacokinetics); type: in vivo, human
[4] = test system: unanesthetized, freely moving rats; assay: Diaphragm EMG and plethysmography in awake rats after C2Hx; type: in vivo, Rat
Procedure: Low dose ampakine treatment was evaluated in awake, freely moving subjects to determine whether this treatment would safely and effectively increase diaphragm activity impaired due to acute- or sub-acute cervical SCI. In a placebo-controlled experiment with freely-moving non-anesthetized rats, ventilation and metabolic rate (VCO2) were measured using whole body plethysmography and diaphragm EMG using in-dwelling muscle electrodes. Diaphragm electromyography (EMG) was recorded using chronic in-dwelling electrodes in unanesthetized, freely moving rats. A spinal hemilesion was induced at C2 (C2Hx), and rats were studied at 4- and 14-days post injury during quiet room air breathing and acute respiratory challenge accomplished by inspiring 10% O2, 7% CO2 gas mixture. At 4 and 14 days following C2 spinal hemisection injury (C2Hx), rats were given a single intravenous bolus of CX717 (5 mg/kg, n=8), CX1739 (5 mg/kg, n=8) or vehicle (2-hydroxypropyl-beta-cyclodextrin; HPCD; n=8) (FIG. 22). Hemisectional spinal surgery results in reduced diaphragm activity as measured by EMG and plethysmography (FIG. 23).

[5] = test system: evoked fEPSPs in rat hippocampus; assay: Evoked fEPSPs in rat hippocampus in vivo (perforant path / dentate gyrus); parameters: species or system Rat (Long Evans); conditions: for Minimum Effective Dose, effect on evoked fEPSPs in rat hippocampus: Rat (Long Evans), IP; for Effect on evoked fEPSP / EPSP amplitude: anesthetized rat, intraperitoneal
Procedure: Further selection and characterization of ampakines to identify SCI recovery drugs useful within the invention involved electrophysiological studies (to measure “electrically evoked field excitatory postsynaptic potentials” (fEPSPs) for test compounds). CX717 and CX1739 were tested for their ability to facilitate synaptic responses in vivo in anesthetized animals following peripheral administration. Stimulating and recording electrodes were inserted into the perforant path and dentate gyrus of the hippocampus, respectively. Electrically evoked field excitatory postsynaptic responses (fEPSPs) were measured before administration of ampakines, and for approximately 2 hours following intraperitoneal administration of ampakines.
Electrically evoked field excitatory postsynaptic potentials (fEPSPs) were determined for the exemplary test ampakines CX717 and CX1739 as described. […] The response magnitude was related to the plasma levels achieved during the study. […] Both ampakines appear to produce a 25% maximum increase in fEPSP amplitude.

[6] = 14 days post injury, baseline breathing, 5 mg/kg i.v.

O=C(c1ccc2nonc2c1)N1CCOCC1 [CX717, 1-(benzofurazan-5-ylcarbonyl)morpholine]
Minimum Effective Dose, amphetamine-stimulated locomotion and rearing (Rat (SD) [1]): 1 mg/kg | Minimum Effective Dose, delayed match-to-sample test (Monkey (Rhesus)): 0.8 mg/kg | Minimum Effective Dose, amphetamine-stimulated locomotion (Mouse (CD1)): 18 mg/kg | Dose producing a significant decrease in amphetamine-stimulated locomotion (Mouse (CD1)): 3 mg/kg | Minimum Effective Dose, radial arm maze - spatial memory (Rat (SD) [2]): 0.3 mg/kg | Minimum Effective Dose, effect on induction of LTP in rat hippocampus (LTP in rat hippocampus): 2 mg/kg | Half-life compared with CX516 ([3]; species not stated): significantly longer half-lives than CX516 | Increase in tidal volume [4, 6]: ~20% | Increase of peak inspiratory ipsilateral diaphragm EMG activity [4, 6]: ~30% | Minimum Effective Dose, effect on evoked fEPSPs in rat hippocampus [5]: 5 mg/kg | Effect on evoked fEPSP / EPSP amplitude [5]: long-lasting increase

CN(C(=O)c1ccc2nonc2c1)C1CCOCC1 [CX1739, N-Methyl-N-tetrahydro-2H-pyran-4-yl-[2,1,3]-benzoxadiazole-5-carboxamide]
Minimum Effective Dose, amphetamine-stimulated locomotion and rearing (Rat (SD) [1]): 1 mg/kg | Amphetamine-stimulated rearing behavior in rats (Rat (SD) [1]; rats, all doses tested): modest reduction | Minimum Effective Dose, delayed match-to-sample test (Monkey (Rhesus)): 0.3 mg/kg | Task accuracy with the Best Dose of each subject (Monkey (Rhesus); sessions initiated 45 min after administration): statistically significant increase | Minimum Effective Dose, amphetamine-stimulated locomotion (Mouse (CD1)): 30 mg/kg | Dose producing a significant decrease in amphetamine-stimulated locomotion (Mouse (CD1)): 30 mg/kg | Minimum Effective Dose, radial arm maze - spatial memory (Rat (SD) [2]): 0.3 mg/kg | Dose producing the maximal effect / optimal dose in the maze assays (Rat (SD) [2]; ip): 0.3 mg/kg | Effect on LTP after tetanic stimulation (LTP in rat hippocampus; 3 mg/kg, 15 minutes prior to tetanic stimulation): statistically significant increase in LTP | Minimum Effective Dose, effect on induction of LTP in rat hippocampus (LTP in rat hippocampus): 3 mg/kg | Half-life compared with CX516 ([3]; human, in vivo): significantly longer half-lives than CX516 | Increase in tidal volume ([4]; 4-day time point, 5 mg/kg intravenous bolus): 20% | Tidal volume during hypoxia-hypercapnia challenge ([4]; 10% O2, 7% CO2, follows the 4-day results): larger increase in tidal volume | Increase in tidal volume [4, 6]: no change in tidal volume | Increase of peak inspiratory ipsilateral diaphragm EMG activity [4, 6]: ~10% | Minimum Effective Dose, effect on evoked fEPSPs in rat hippocampus [5]: 5 mg/kg | Effect on evoked fEPSP / EPSP amplitude [5]: substantial increase
